Data published in PubChem BioAssay (NCI).
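Protocol summary: plate cells (96-well), add compound at 5 concentrations, incubate 48 h, interpolate endpoints linearly. TGI: total growth inhibition.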

Legend:
Experiment in all cases: inhibition of tumour cell growth, NCI panel, 48 h
SW-620 colon = system: SW-620 colon
786-0 renal = system: 786-0 renal
SK-MEL-2 melanoma = system: SK-MEL-2 melanoma
HOP-92 NSCLC = system: HOP-92 NSCLC
COLO 205 colon = system: COLO 205 colon
HOP-62 NSCLC = system: HOP-62 NSCLC
UACC-62 melanoma = system: UACC-62 melanoma
ACHN renal = system: ACHN renal
M14 melanoma = system: M14 melanoma
SK-MEL-28 melanoma = system: SK-MEL-28 melanoma
HCT-116 colon = system: HCT-116 colon
MDA-MB-435 = system: MDA-MB-435
SK-MEL-5 melanoma = system: SK-MEL-5 melanoma
KM12 colon = system: KM12 colon
LOX IMVI melanoma = system: LOX IMVI melanoma
OVCAR-8 ovarian = system: OVCAR-8 ovarian
SF-268 CNS = system: SF-268 CNS
A549 NSCLC = system: A549 NSCLC
SF-539 CNS = system: SF-539 CNS
NCI-H226 lung = system: NCI-H226 lung
OVCAR-5 ovarian = system: OVCAR-5 ovarian
UACC-257 melanoma = system: UACC-257 melanoma
IGROV1 ovarian = system: IGROV1 ovarian
OVCAR-3 ovarian = system: OVCAR-3 ovarian
PC-3 prostate = system: PC-3 prostate
EKVX NSCLC = system: EKVX NSCLC
TK-10 renal = system: TK-10 renal
U251 CNS = system: U251 CNS
NCI-H23 lung = system: NCI-H23 lung
BT-549 breast = system: BT-549 breast
NCI-H522 lung = system: NCI-H522 lung
UO-31 renal = system: UO-31 renal
HL-60(TB) leukemia = system: HL-60(TB) leukemia
MDA-N = system: MDA-N
A498 renal = system: A498 renal
CAKI-1 renal = system: CAKI-1 renal
NCI/ADR-RES ovarian = system: NCI/ADR-RES ovarian
SNB-75 CNS = system: SNB-75 CNS
HT29 colon = system: HT29 colon
SN12C renal = system: SN12C renal
CCRF-CEM leukemia = system: CCRF-CEM leukemia
SF-295 CNS = system: SF-295 CNS
SNB-19 CNS = system: SNB-19 CNS
SK-OV-3 ovarian = system: SK-OV-3 ovarian
MDA-MB-231 breast = system: MDA-MB-231 breast
T-47D breast = system: T-47D breast
HCT-15 colon = system: HCT-15 colon
HS 578T breast = system: HS 578T breast
NCI-H460 lung = system: NCI-H460 lung
DU-145 prostate = system: DU-145 prostate
OVCAR-4 ovarian = system: OVCAR-4 ovarian
MCF7 breast = system: MCF7 breast
MOLT-4 leukemia = system: MOLT-4 leukemia

Measured: TGI

C=C(C)CC1=C(OCC)C(OC)(OCC)C1=O (stereo not drawn)
> 100 µM: all assays above
